What all share (test): cell-based
Test [1] deals with hNav1.3 (Homo sapiens, UniProt Q9NY46). The settings on record: IonWorks Quattro, read-out: IWQ Use Nav1.3. (In general: The patch-clamp technique gives a direct electrical read-out from membranes.)
Test [2] concerns the target hNav1.7 (Homo sapiens, UniProt Q15858). It counts as cell-based.
Test [3] has as its target hNav1.5 (Homo sapiens, UniProt Q14524). The note with it: IonWorks Quattro, read-out: IWQ Use Nav1.5.
The mark [4] stands for this setting: IonWorks Quattro, Use, read-out: IWQ Use Nav1.7.
[5] abbreviates: Table 22, IonWorks Quattro, use, […], read-out: IWQ Use Nav1.7.

Molecules are shown by their SMILES. Read-outs that look alike come from different tables or passages of the source. Positions of bridges follow the written chain, without caps; N, C: chain ends. Non-standard residues stand in square brackets, D forms with d. Residues, ends and D or L forms follow the SMILES beside them. Phe(4-COOH) = N[C@@H](Cc1ccc(C(=O)O)cc1)C(=O)O; Lys(Me2) = CN(C)CCCC[C@H](N)C(=O)O; 2Pal = N[C@@H](Cc1ccccn1)C(=O)O

Chain of hNav1.5 (Q14524 whole entry, looked up): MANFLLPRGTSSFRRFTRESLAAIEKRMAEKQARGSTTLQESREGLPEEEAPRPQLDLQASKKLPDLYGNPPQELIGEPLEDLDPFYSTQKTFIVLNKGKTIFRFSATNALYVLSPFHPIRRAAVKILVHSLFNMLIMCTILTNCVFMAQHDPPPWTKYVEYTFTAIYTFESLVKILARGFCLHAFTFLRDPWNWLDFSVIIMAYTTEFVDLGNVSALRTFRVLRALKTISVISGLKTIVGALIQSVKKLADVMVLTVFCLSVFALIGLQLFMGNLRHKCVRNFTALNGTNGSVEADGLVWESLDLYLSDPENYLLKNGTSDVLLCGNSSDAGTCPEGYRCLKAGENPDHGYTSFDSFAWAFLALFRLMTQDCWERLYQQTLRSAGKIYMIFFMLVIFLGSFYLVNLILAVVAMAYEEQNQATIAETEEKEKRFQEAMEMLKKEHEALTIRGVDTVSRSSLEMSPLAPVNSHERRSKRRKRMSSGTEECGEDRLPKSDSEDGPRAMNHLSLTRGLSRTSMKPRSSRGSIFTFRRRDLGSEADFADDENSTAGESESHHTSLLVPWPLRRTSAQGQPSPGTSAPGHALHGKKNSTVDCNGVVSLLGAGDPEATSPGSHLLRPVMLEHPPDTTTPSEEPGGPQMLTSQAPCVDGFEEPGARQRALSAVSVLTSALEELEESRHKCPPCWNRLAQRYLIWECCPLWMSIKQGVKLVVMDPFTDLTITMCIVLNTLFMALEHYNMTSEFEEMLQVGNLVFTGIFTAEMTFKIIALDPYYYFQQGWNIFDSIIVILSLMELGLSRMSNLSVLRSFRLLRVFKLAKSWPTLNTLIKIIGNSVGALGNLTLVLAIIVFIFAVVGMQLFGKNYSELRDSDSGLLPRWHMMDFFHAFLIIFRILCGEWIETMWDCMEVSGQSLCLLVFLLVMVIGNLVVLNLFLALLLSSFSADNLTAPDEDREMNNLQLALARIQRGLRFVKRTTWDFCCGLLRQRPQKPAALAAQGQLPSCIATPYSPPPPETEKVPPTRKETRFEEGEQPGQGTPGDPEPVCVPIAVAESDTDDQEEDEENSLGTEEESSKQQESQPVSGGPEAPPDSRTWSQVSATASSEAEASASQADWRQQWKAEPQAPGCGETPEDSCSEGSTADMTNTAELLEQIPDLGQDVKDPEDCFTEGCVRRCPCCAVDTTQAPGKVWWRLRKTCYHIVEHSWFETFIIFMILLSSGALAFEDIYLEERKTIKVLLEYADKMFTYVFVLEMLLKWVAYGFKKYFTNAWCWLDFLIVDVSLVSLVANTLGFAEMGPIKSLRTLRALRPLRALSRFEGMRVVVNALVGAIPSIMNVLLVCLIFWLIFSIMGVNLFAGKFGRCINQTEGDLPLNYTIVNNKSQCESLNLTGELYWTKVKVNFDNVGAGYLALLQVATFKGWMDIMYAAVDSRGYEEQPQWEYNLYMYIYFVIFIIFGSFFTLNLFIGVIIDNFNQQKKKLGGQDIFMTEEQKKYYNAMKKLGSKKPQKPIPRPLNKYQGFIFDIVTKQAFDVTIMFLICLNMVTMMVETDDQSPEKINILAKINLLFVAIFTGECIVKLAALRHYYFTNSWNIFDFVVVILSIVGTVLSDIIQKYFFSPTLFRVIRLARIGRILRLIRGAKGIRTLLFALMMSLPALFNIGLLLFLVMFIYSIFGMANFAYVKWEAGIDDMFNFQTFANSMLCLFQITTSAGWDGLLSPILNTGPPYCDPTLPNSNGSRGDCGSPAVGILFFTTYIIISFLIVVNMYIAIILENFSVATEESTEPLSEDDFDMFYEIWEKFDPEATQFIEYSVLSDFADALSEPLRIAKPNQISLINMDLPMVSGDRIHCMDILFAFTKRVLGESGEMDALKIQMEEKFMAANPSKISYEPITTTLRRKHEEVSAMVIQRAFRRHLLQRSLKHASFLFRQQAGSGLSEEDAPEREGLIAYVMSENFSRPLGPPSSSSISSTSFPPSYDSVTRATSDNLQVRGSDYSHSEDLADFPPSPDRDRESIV
Chain of hNav1.3 (Q9NY46 whole entry, looked up): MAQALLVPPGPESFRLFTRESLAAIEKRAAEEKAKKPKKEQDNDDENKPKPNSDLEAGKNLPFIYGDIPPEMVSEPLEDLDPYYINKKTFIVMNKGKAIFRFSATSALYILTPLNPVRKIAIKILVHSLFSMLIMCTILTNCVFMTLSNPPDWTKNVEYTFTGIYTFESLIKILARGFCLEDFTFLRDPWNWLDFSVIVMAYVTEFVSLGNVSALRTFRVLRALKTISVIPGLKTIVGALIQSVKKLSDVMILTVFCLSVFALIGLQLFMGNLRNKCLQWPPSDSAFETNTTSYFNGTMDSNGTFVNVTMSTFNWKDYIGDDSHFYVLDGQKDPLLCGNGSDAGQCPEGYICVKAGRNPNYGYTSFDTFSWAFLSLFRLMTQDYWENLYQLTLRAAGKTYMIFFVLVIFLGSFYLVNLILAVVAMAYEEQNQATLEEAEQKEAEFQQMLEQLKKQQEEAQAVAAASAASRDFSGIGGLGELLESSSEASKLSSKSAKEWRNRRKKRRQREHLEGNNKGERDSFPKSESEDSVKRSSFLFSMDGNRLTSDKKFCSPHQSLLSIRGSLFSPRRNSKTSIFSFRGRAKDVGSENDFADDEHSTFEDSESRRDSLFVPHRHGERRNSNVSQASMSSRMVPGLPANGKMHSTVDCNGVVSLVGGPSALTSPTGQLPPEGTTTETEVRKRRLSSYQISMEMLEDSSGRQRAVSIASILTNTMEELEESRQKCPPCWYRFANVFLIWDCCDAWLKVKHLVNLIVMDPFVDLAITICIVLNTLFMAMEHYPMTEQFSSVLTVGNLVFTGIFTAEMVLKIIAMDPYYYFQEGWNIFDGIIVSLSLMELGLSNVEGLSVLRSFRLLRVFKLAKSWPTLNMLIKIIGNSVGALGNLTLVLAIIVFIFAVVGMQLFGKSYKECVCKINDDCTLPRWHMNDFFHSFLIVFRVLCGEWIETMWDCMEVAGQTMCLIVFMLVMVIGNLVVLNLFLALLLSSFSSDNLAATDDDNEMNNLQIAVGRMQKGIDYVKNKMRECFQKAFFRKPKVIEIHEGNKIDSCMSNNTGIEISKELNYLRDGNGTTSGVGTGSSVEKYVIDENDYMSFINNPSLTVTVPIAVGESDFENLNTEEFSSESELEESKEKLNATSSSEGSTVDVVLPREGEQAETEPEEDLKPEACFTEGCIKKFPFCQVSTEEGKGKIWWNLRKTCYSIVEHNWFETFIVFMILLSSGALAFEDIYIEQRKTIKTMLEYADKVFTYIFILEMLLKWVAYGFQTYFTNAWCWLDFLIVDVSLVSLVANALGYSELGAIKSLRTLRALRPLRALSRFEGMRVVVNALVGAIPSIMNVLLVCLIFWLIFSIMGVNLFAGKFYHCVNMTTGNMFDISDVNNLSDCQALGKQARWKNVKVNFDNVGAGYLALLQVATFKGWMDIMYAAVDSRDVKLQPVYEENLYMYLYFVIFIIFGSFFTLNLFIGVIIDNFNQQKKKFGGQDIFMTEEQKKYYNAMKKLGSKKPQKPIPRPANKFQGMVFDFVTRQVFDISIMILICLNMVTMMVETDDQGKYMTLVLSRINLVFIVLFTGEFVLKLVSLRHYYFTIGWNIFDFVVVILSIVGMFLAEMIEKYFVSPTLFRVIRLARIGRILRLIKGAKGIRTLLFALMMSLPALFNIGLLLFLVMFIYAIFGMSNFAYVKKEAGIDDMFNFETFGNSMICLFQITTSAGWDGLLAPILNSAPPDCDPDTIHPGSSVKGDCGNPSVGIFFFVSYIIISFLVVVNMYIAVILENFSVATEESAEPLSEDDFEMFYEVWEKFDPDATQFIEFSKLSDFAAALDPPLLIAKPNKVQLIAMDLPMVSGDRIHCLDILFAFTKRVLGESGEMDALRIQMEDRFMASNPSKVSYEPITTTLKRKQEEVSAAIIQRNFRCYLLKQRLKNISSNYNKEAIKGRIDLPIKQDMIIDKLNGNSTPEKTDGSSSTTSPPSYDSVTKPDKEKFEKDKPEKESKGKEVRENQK

Consider `CC[C@H](C)[C@@H]1NC(=O)[C@@H]2CSSC[C@@H]3NC(=O)[C@H](Cc4ccc(C(=O)O)cc4)NC(=O)[C@H](CC(C)C)NC(=O)[C@H](CC(N)=O)NC(=O)[C@@H]4CCCN4C(=O)[C@H](CCCNC(=N)N)NC(=O)[C@H](CSSC[C@H](NC(=O)[C@@H](N)CC(=O)O)C(=O)N[C@@H](CC(C)C)C(=O)NCC(=O)N[C@@H](Cc4ccccc4)C(=O)N[C@@H](CCSC)C(=O)N[C@@H](CCCNC(=N)N)C(=O)N[C@@H](CCCCN)C(=O)N2)NC(=O)[C@H](CSSC[C@@H](C(=O)N[C@@H](CCCCN)C(=O)N[C@@H](Cc2ccc(O)cc2)C(=O)N[C@H](C(=O)N[C@@H](Cc2ccccc2)C(N)=O)C(C)C)NC(=O)[C@H](Cc2c[nH]c4ccccc24)NC(=O)[C@H](CCCCN)NC(=O)[C@H](Cc2c[nH]cn2)NC(=O)[C@H]([C@@H](C)O)NC(=O)[C@H](CCCNC(=N)N)NC(=O)[C@H](CO)NC3=O)NC(=O)[C@H](CCCCN)NC(=O)[C@H](CC(=O)O)NC(=O)[C@H](CC(N)=O)NC(=O)[C@H](CC(=O)O)NC(=O)[C@@H]2CCCN2C1=O` [compound 333] (H-DCLGFMRKCIPDNDKCCRPNL[Phe(4-COOH)]CSRTHKWCKYVF-NH2; disulfide 2-17, 9-23, 16-30), for which the IC50 in test [1] (Use) was 4470 nM; in test [2] (setting [4]), 5770 nM; in test [3] (Use), 7500 nM.
The like results for `CC[C@H](C)[C@@H]1NC(=O)[C@@H]2CSSC[C@@H]3NC(=O)[C@H](Cc4ccccn4)NC(=O)[C@H](CC(C)C)NC(=O)[C@H](CC(N)=O)NC(=O)[C@@H]4CCCN4C(=O)[C@H](CCCNC(=N)N)NC(=O)[C@H](CSSC[C@H](NC(=O)[C@@H](N)CC(=O)O)C(=O)N[C@@H](CC(C)C)C(=O)NCC(=O)N[C@@H](Cc4ccccc4)C(=O)N[C@@H](CCSC)C(=O)N[C@@H](CCCNC(=N)N)C(=O)N[C@@H](CCCCN)C(=O)N2)NC(=O)[C@H](CSSC[C@@H](C(=O)N[C@@H](CCCCN)C(=O)N[C@@H](Cc2ccc(O)cc2)C(=O)N[C@H](C(=O)N[C@@H](Cc2ccccc2)C(N)=O)C(C)C)NC(=O)[C@H](Cc2c[nH]c4ccccc24)NC(=O)[C@H](CCCCN)NC(=O)[C@H](Cc2c[nH]cn2)NC(=O)[C@H]([C@@H](C)O)NC(=O)[C@H](CCCNC(=N)N)NC(=O)[C@H](CO)NC3=O)NC(=O)[C@H](CCCCN)NC(=O)[C@H](CC(=O)O)NC(=O)[C@H](CC(N)=O)NC(=O)[C@H](CC(=O)O)NC(=O)[C@@H]2CCCN2C1=O` [compound 334] (H-DCLGFMRKCIPDNDKCCRPNL[2Pal]CSRTHKWCKYVF-NH2; disulfide 2-17, 9-23, 16-30) were, in that order, 140 nM, 330 nM and 11000 nM.
The like results for `CC[C@H](C)[C@@H]1NC(=O)[C@@H]2CSSC[C@@H]3NC(=O)[C@H](C(C)C)NC(=O)[C@H](CC(C)C)NC(=O)[C@H](CC(N)=O)NC(=O)[C@@H]4CCCN4C(=O)[C@H](CCCNC(=N)N)NC(=O)[C@H](CSSC[C@H](NC(=O)[C@@H](N)CC(=O)O)C(=O)N[C@@H](CC(C)C)C(=O)NCC(=O)N[C@@H](Cc4ccccc4)C(=O)N[C@@H](CCSC)C(=O)N[C@@H](CCCNC(=N)N)C(=O)N[C@@H](CCCCN)C(=O)N2)NC(=O)[C@H](CSSC[C@@H](C(=O)N[C@@H](CCCCN)C(=O)N[C@@H](Cc2ccc(O)cc2)C(=O)N[C@H](C(=O)N[C@@H](Cc2ccccc2)C(N)=O)C(C)C)NC(=O)[C@H](Cc2c[nH]c4ccccc24)NC(=O)[C@H](CCCCN)NC(=O)[C@H](Cc2c[nH]cn2)NC(=O)[C@H]([C@@H](C)O)NC(=O)[C@H](CCCCN(C)C)NC(=O)[C@H](CO)NC3=O)NC(=O)[C@H](CCCCN)NC(=O)[C@H](CC(=O)O)NC(=O)[C@H](CC(N)=O)NC(=O)[C@H](CC(=O)O)NC(=O)[C@@H]2CCCN2C1=O` [compound 335] (H-DCLGFMRKCIPDNDKCCRPNLVCS[Lys(Me2)]THKWCKYVF-NH2; disulfide 2-17, 9-23, 16-30) were, in that order, 110 nM, 310 nM and 7930 nM.
As for `CC[C@H](C)[C@@H]1NC(=O)[C@@H]2CSSC[C@@H]3NC(=O)[C@H](C(C)C)NC(=O)[C@H](CC(C)C)NC(=O)[C@H](CC(N)=O)NC(=O)[C@@H]4CCCN4C(=O)[C@H](CCCNC(=N)N)NC(=O)[C@H](CSSC[C@H](NC(=O)[C@@H](N)CC(=O)O)C(=O)N[C@@H](CC(C)C)C(=O)NCC(=O)N[C@@H](Cc4ccccc4)C(=O)N[C@@H](CCSC)C(=O)N[C@@H](CCCNC(=N)N)C(=O)N[C@@H](CCCCN)C(=O)N2)NC(=O)[C@H](CSSC[C@@H](C(=O)N[C@@H](CCCCN)C(=O)N[C@@H](Cc2ccc(O)cc2)C(=O)N[C@H](C(=O)N[C@@H](Cc2ccccc2)C(N)=O)C(C)C)NC(=O)[C@H](Cc2c[nH]c4ccccc24)NC(=O)[C@H](CCCCN)NC(=O)[C@H](Cc2c[nH]cn2)NC(=O)[C@H]([C@@H](C)O)NC(=O)[C@H](CCCNC(=NC)NC)NC(=O)[C@H](CO)NC3=O)NC(=O)[C@H](CCCCN)NC(=O)[C@H](CC(=O)O)NC(=O)[C@H](CC(N)=O)NC(=O)[C@H](CC(=O)O)NC(=O)[C@@H]2CCCN2C1=O` [compound 336], the IC50 was 110 nM in test [1] (Use), 140 nM in test [2] and 9220 nM in test [3] (Use).
Turning to `CC[C@H](C)[C@@H]1NC(=O)[C@@H]2CSSC[C@@H]3NC(=O)[C@H](C(C)C)NC(=O)[C@H](CC(C)C)NC(=O)[C@H](CC(N)=O)NC(=O)[C@@H]4CCCN4C(=O)[C@H](CCCNC(=N)N)NC(=O)[C@H](CSSC[C@H](NC(=O)[C@@H](N)CC(=O)O)C(=O)N[C@@H](CC(C)C)C(=O)NCC(=O)N[C@@H](Cc4ccccc4)C(=O)N[C@@H](CCSC)C(=O)N[C@@H](CCCNC(=N)N)C(=O)N[C@@H](CCCCN)C(=O)N2)NC(=O)[C@H](CSSC[C@@H](C(=O)N[C@@H](CCCCN)C(=O)N[C@@H](Cc2ccc(O)cc2)C(=O)N[C@H](C(=O)N[C@@H](Cc2ccccc2)C(N)=O)C(C)C)NC(=O)[C@H](Cc2c[nH]c4ccccc24)NC(=O)[C@H](CCCCN)NC(=O)[C@H](Cc2c[nH]cn2)NC(=O)[C@H](CO)NC(=O)[C@H](CCCNC(=N)N)NC(=O)[C@H](CO)NC3=O)NC(=O)[C@H](CCCCN)NC(=O)[C@H](CC(=O)O)NC(=O)[C@H](CC(N)=O)NC(=O)[C@H](CC(=O)O)NC(=O)[C@@H]2CCCN2C1=O` [compound 338] (H-DCLGFMRKCIPDNDKCCRPNLVCSRSHKWCKYVF-NH2; disulfide 2-17, 9-23, 16-30), the IC50 in test [1] (Table 22, use, […]) came out at 90 nM; in test [2] (setting [5]), 100 nM; in test [3] (Table 22, use, […]), 12300 nM.
The like results for `CC[C@H](C)[C@@H]1NC(=O)[C@@H]2CSSC[C@@H]3NC(=O)[C@H](C(C)C)NC(=O)[C@H](CC(C)C)NC(=O)[C@H](CC(N)=O)NC(=O)[C@@H]4CCCN4C(=O)[C@H](CCCNC(=N)N)NC(=O)[C@H](CSSC[C@H](NC(=O)[C@@H](N)CC(=O)O)C(=O)N[C@@H](CC(C)C)C(=O)NCC(=O)N[C@@H](Cc4ccccc4)C(=O)N[C@@H](CCSC)C(=O)N[C@@H](CCCNC(=N)N)C(=O)N[C@@H](CCCCN)C(=O)N2)NC(=O)[C@H](CSSC[C@@H](C(=O)N[C@@H](CCCCN)C(=O)N[C@@H](Cc2ccc(O)cc2)C(=O)N[C@H](C(=O)N[C@@H](Cc2ccccc2)C(N)=O)C(C)C)NC(=O)[C@H](Cc2c[nH]c4ccccc24)NC(=O)[C@H](CCCCN)NC(=O)[C@H](Cc2c[nH]cn2)NC(=O)[C@H](CCC(N)=O)NC(=O)[C@H](CCCNC(=N)N)NC(=O)[C@H](CO)NC3=O)NC(=O)[C@H](CCCCN)NC(=O)[C@H](CC(=O)O)NC(=O)[C@H](CC(N)=O)NC(=O)[C@H](CC(=O)O)NC(=O)[C@@H]2CCCN2C1=O` [compound 339] (H-DCLGFMRKCIPDNDKCCRPNLVCSRQHKWCKYVF-NH2; disulfide 2-17, 9-23, 16-30) were, in that order, 90 nM, 140 nM and 17900 nM.
The like results for `CC[C@H](C)[C@@H]1NC(=O)[C@@H]2CSSC[C@@H]3NC(=O)[C@H](C(C)C)NC(=O)[C@H](CC(C)C)NC(=O)[C@H](CC(N)=O)NC(=O)[C@@H]4CCCN4C(=O)[C@H](CCCNC(=N)N)NC(=O)[C@H](CSSC[C@H](NC(=O)[C@@H](N)CC(=O)O)C(=O)N[C@@H](CC(C)C)C(=O)NCC(=O)N[C@@H](Cc4ccccc4)C(=O)N[C@@H](CCSC)C(=O)N[C@@H](CCCNC(=N)N)C(=O)N[C@@H](CCCCN)C(=O)N2)NC(=O)[C@H](CSSC[C@@H](C(=O)N[C@@H](CCCCN)C(=O)N[C@@H](Cc2ccc(O)cc2)C(=O)N[C@H](C(=O)N[C@@H](Cc2ccccc2)C(N)=O)C(C)C)NC(=O)[C@H](Cc2c[nH]c4ccccc24)NC(=O)[C@H](CCCCN)NC(=O)[C@H](Cc2c[nH]cn2)NC(=O)[C@H](Cc2ccc(O)cc2)NC(=O)[C@H](CCCNC(=N)N)NC(=O)[C@H](CO)NC3=O)NC(=O)[C@H](CCCCN)NC(=O)[C@H](CC(=O)O)NC(=O)[C@H](CC(N)=O)NC(=O)[C@H](CC(=O)O)NC(=O)[C@@H]2CCCN2C1=O` [compound 340] (H-DCLGFMRKCIPDNDKCCRPNLVCSRYHKWCKYVF-NH2; disulfide 2-17, 9-23, 16-30) were, in that order, 60 nM, 80 nM and 5510 nM.
The like results for `CC[C@H](C)[C@@H]1NC(=O)[C@@H]2CSSC[C@@H]3NC(=O)[C@H](C(C)C)NC(=O)[C@H](CC(C)C)NC(=O)[C@H](CC(N)=O)NC(=O)[C@@H]4CCCN4C(=O)[C@H](CCCNC(=N)N)NC(=O)[C@H](CSSC[C@H](NC(=O)[C@@H](N)CC(=O)O)C(=O)N[C@@H](CC(C)C)C(=O)NCC(=O)N[C@@H](Cc4ccccc4)C(=O)N[C@@H](CCSC)C(=O)N[C@@H](CCCNC(=N)N)C(=O)N[C@@H](CCCCN)C(=O)N2)NC(=O)[C@H](CSSC[C@@H](C(=O)N[C@@H](CCCCN)C(=O)N[C@@H](Cc2ccc(O)cc2)C(=O)N[C@H](C(=O)N[C@@H](Cc2ccccc2)C(N)=O)C(C)C)NC(=O)[C@H](Cc2c[nH]c4ccccc24)NC(=O)[C@H](CCCCN)NC(=O)[C@H](Cc2c[nH]cn2)NC(=O)[C@H](Cc2ccccc2)NC(=O)[C@H](CCCNC(=N)N)NC(=O)[C@H](CO)NC3=O)NC(=O)[C@H](CCCCN)NC(=O)[C@H](CC(=O)O)NC(=O)[C@H](CC(N)=O)NC(=O)[C@H](CC(=O)O)NC(=O)[C@@H]2CCCN2C1=O` [compound 341] (H-DCLGFMRKCIPDNDKCCRPNLVCSRFHKWCKYVF-NH2; disulfide 2-17, 9-23, 16-30) were, in that order, 100 nM, 80 nM and 5880 nM.
